# Experimental data from US20250114367A1, “METHOD OF TREATING HAIR LOSS DISORDERS” (Sun Pharmaceutical Industries, Inc., priority 2023, published 2025).
# Several values for one entry are separate records, joined by “and”; a condition that tells them apart may be missing. Equal entries are not always repeated.
# Test system: subjects with AA
# Test: Open-label extension (OLE) studies: SALT score over time
# Assay type: in vivo, human
# Settings: for percentage of subjects with a SALT score of ≤20: out to Week 52, pooled interim analysis
# Description: The SALT score is calculated for a patient/subject by measuring the percentage of hair loss in each of the 4 areas of the scalp and adding the total to achieve a composite score (referred to herein as an absolute SALT score). Hair regrowth is reflected by a decrease in the SALT score. For example, no hair on the scalp would have a SALT score of 100 (i.e., an absolute SALT score) while complete hair regrowth would be a SALT score of 0 (i.e., an absolute SALT score).
# Subjects completing 24 weeks of treatment with […] 8 mg twice daily in the Phase III trial were eligible to continue treatment in an open label extension trial. Following 52 additional weeks of treatment with […]™ 8 mg twice daily clinical response rates continued to increase with approximately 74% of the 80 subjects on 8 mg twice daily for 76 weeks achieving SALT ≤20.
# The qualifying clinical trials including the following: 1. NCT03137381; 2. NCT03811912; 3. NCT03941548; 4. NCT04784533; 5. NCT04518995; and 6. NCT04797650 (all available a at https://clinicaltrials.gov).
# The OLE Efficacy Population is defined as all subjects who received at least one dose of deuruxolitinib and had at least one post-baseline SALT assessment in OLE. The data analyses include subjects' data from the qualifying trial. Missing SALT scores were not imputed. The number of subjects decreases over time due to missing data, patient discontinuations, or subjects not yet at the later timepoints. Any SALT data after a qualifying dose change in the OLE was censored for all figures included here, except those showing the overall treatment sequence. A “qualifying dose change” referred to herein can be placebo in any qualifying trial to any dose of deuruxolitinib in the OLE (includes subjects who switched doses), or any dose of deuruxolitinib in a qualifying trial to any dose of deuruxolitinib in the OLE. Various analyses using SALT scores were conducted to best estimate the overall long-term effect of deuruxolitinib considering the issues with dose changes and decreasing patient numbers over time. “Any Dose” analysis tracks all active subjects over time pooled across the two doses. “As Observed” analysis censors subjects at the time of dose adjustment or study discontinuation. “LOCF” (last observation carried forward) analysis utilizes the last SALT score before dose change and carries it forward for all other timepoints up to 52 weeks.
compound,measurement,setting,value
"[2H]C1([2H])C([C@@H](CC#N)n2cc(-c3ncnc4[nH]ccc34)cn2)C([2H])([2H])C([2H])([2H])C1([2H])[2H] [CTP-543, (R)-3-(4-(7H-pyrrolo[2,3-d]pyrimidin-4-yl)-1H-pyrazol-1-yl)-3-(cyclopentyl-2,2,3,3,4,4,5,5-d8) propanenitrile]",pooled mean SALT score,"8 mg BID in OLE, placebo in the earlier studies",30.4
same,OLE responders who maintained treatment response in the OLE,"8 mg BID in the OLE without a qualifying dose change, 282 of 283 responders",99.6%
same,pooled mean SALT score,"12 mg BID in OLE, placebo in the earlier studies",43.0
same,pooled mean SALT score,"52 weeks, 8 mg BID in OLE, 8 mg of deuruxolitinib in the earlier studies",25.6
same,pooled mean SALT score,"52 weeks, 8 mg BID or 12 mg BID in OLE, dosed with deuruxolitinib in the earlier studies",31.7
same,pooled mean SALT score,"52 weeks, 8 mg BID or 12 mg BID in OLE, placebo in the earlier studies",43.6
same,pooled mean SALT score,"52 weeks, 12 mg BID in OLE, 12 mg of deuruxolitinib in the earlier studies",27.7
same,subjects achieving SALT ≤20,80 subjects on 8 mg twice daily for 76 weeks (24 weeks Phase III + 52 weeks open label extension),approximately 74%
same,proportion of participants achieving SALT ≤20,"OLE at Week 68, any dose (including switched doses), listed as deuruxolitinib",62.6% and 63%
same,proportion of participants achieving SALT ≤20 (FIG. 13A),"Week 68, 8 mg BID",> 80%
same,patients achieving SALT 10,"Week 68, 8 mg BID/8 mg BID group, As observed, 179/256",69.9%
same,patients achieving SALT 10,"Week 68, 8 mg BID/8 mg BID group, LOCF, 213/521",40.9%
same,proportion of participants achieving SALT ≤20,"Week 68, 8 mg BID, As Observed (AO), listed as deuruxolitinib",76.6% and 77%
same,proportion of participants achieving SALT ≤20,"Week 68, 8 mg BID, LOCF",48.8%
same,proportion of participants achieving SALT ≤20,"Week 68, 12 mg BID, As Observed (AO), listed as deuruxolitinib",66.7% and 67%
same,proportion of participants achieving SALT ≤20,"Week 68, 12 mg BID, LOCF",60.9%
same,patients achieving SALT 10,"Week 68, placebo/8 mg BID group, As observed, 39/59",66.1%
same,patients achieving SALT 10,"Week 68, placebo/8 mg BID group, LOCF, 41/122",33.6%
same,proportion of participants achieving SALT ≤20,"established in the Qualifying Studies, any dose",34.9%
same,Mean SALT score,"out to 68 weeks, any dose in Qualifying Study and OLE, n=836, baseline 86.8 (n=984)",26.8
same,percentage of subjects with a SALT score of ≤20,"8 mg twice per day in the OLE, listed as deuruxolitinib",63.6% and 64%
same,percentage of subjects with a SALT score of ≤20,"12 mg twice per day in the OLE, listed as deuruxolitinib",62.1% and 62%
same,percentage of subjects with a SALT score of ≤20,"any dose in the OLE (including switched doses), listed as deuruxolitinib",57.1% and 57%
